Reference: PMC4672351, “Drug-Drug Interaction Potentials of Tyrosine Kinase Inhibitors via Inhibition of UDP-Glucuronosyltransferases” (Scientific Reports, 2015)
Each block holds one molecule with its values, some of them ahead of it.

What was measured:
UGT1A1 = biological target: T1, UGT1A1 (Homo sapiens, UniProt P22309); test: Inhibition of 4-MU glucuronidation by recombinant UGT1A1; conditions: human, recombinant UGT1A1, pH 7.4, probe 4-MU
T1 sequence (P22309 26-533): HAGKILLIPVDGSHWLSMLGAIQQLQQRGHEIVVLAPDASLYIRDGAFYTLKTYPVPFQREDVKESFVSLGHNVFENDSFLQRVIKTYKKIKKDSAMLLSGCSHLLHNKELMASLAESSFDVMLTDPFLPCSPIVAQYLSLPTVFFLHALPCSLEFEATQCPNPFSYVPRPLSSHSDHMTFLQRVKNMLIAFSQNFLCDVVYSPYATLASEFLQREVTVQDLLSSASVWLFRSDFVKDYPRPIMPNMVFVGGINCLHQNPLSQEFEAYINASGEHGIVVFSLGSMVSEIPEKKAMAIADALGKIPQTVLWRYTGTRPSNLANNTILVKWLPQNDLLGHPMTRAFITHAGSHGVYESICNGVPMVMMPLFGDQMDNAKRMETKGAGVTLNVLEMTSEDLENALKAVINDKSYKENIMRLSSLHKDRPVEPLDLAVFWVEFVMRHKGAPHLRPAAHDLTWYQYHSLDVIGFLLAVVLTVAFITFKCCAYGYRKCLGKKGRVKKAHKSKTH

UGT1A7 = biological target: T2, UGT1A7 (Homo sapiens, UniProt Q9HAW7); test: Inhibition of 4-MU glucuronidation by recombinant UGT1A7; conditions: human, recombinant UGT1A7, pH 7.4, probe 4-MU
T2 sequence (Q9HAW7 26-530): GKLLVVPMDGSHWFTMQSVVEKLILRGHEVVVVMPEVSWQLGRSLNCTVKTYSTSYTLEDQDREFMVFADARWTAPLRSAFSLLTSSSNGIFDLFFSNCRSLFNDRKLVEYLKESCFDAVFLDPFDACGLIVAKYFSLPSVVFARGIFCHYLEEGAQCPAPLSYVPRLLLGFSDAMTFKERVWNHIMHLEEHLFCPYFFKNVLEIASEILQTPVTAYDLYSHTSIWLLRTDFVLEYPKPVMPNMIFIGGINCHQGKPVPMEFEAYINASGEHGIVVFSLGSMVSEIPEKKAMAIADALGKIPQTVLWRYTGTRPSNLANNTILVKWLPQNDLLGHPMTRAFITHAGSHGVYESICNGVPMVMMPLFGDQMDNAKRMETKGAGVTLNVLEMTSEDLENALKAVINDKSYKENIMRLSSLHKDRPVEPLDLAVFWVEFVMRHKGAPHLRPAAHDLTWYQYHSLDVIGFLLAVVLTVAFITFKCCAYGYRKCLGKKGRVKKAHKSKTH

UGT1A9 = biological target: T3, UGT1A9 (Homo sapiens, UniProt O60656); test: in vitro; conditions: recombinant UGT1A9, pH 7.4, probe 4-MU
T3 sequence (O60656 26-530): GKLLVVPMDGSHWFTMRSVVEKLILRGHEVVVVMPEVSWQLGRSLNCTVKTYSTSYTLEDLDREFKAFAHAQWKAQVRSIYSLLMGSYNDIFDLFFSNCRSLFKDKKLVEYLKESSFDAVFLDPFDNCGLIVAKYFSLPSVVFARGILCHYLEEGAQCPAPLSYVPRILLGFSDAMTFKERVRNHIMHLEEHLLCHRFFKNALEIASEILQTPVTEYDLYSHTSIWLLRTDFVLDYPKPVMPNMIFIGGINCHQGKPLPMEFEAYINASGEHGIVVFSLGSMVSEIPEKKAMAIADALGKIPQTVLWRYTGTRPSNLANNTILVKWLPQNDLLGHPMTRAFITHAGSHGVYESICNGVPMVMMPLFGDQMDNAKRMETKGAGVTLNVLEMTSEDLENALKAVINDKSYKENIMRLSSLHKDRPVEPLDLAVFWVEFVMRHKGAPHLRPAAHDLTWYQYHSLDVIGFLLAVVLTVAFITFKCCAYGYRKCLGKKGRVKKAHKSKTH

UGT1A6 = biological target: T4, UGT1A6 (Homo sapiens, UniProt P19224); test: Inhibition of 4-MU glucuronidation by recombinant UGT1A6; type: in vitro ADME; conditions: recombinant UGT1A6, pH 7.4, probe 4-MU, 100 μM inhibitor, 4-MU substrate, positive control diclofenac, read-out: Remaining activities (%) of UGT1A6
T4 construct: purchased BD Gentest (Woburn, MA); host or cells: baculovirus-infected insect cells
T4 sequence (P19224 27-532): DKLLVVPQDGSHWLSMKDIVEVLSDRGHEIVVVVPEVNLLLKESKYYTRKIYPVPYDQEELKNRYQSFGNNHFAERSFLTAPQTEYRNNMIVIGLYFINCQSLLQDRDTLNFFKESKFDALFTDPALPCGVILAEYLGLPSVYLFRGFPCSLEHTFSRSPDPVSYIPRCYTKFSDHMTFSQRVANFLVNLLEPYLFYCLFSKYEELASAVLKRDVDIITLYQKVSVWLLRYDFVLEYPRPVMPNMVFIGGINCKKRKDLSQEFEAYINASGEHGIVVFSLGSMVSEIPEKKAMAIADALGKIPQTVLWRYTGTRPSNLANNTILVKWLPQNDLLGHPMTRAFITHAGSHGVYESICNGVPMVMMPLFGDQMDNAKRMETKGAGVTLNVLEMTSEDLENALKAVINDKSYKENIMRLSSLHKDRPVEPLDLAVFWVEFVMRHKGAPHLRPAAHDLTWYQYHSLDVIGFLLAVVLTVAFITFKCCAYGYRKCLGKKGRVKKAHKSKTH

UGT1A8 = biological target: T5, UGT1A8 (Homo sapiens, UniProt Q9HAW9); test: Inhibition of 4-MU glucuronidation by recombinant UGT1A8; conditions: recombinant UGT1A8, pH 7.4, probe 4-MU
T5 sequence (Q9HAW9 26-530): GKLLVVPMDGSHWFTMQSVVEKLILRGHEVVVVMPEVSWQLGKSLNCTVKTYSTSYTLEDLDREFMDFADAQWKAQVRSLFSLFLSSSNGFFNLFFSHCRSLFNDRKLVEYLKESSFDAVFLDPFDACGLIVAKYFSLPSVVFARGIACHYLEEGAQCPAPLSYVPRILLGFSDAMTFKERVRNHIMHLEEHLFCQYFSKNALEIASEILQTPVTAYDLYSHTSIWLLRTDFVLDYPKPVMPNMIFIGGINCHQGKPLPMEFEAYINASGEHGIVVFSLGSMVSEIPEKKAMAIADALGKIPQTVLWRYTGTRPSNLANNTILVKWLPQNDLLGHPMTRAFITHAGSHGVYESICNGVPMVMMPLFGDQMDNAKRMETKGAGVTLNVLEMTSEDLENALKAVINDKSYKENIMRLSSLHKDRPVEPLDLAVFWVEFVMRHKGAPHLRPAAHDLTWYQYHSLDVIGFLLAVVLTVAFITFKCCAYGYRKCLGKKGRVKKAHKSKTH

UGT1A10 = biological target: T6, UGT1A10 (Homo sapiens, UniProt Q9HAW8); test: Inhibition of 4-MU glucuronidation by recombinant UGT1A10; conditions: recombinant UGT1A10, pH 7.4, probe 4-MU
T6 sequence (Q9HAW8 26-530): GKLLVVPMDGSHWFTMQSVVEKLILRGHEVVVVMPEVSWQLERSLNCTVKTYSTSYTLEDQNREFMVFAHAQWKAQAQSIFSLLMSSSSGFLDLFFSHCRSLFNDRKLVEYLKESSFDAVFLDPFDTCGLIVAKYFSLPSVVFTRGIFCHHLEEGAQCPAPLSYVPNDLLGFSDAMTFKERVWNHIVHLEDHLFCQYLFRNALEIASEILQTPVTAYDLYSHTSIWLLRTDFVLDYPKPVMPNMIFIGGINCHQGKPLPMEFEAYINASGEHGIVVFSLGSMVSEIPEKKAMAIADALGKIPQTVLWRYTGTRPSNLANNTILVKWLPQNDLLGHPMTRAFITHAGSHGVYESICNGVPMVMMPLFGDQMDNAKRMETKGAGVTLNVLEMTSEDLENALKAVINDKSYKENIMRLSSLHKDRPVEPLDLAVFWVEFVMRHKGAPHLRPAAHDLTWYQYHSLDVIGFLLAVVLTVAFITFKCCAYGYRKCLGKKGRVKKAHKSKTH

UGT1A4 = biological target: T7, UGT1A4 (Homo sapiens, UniProt P22310); test: Inhibition of TFP glucuronidation by recombinant UGT1A4; conditions: 100 μM inhibitor; TFP substrate; positive control hecogenin
T7 sequence (P22310 29-534): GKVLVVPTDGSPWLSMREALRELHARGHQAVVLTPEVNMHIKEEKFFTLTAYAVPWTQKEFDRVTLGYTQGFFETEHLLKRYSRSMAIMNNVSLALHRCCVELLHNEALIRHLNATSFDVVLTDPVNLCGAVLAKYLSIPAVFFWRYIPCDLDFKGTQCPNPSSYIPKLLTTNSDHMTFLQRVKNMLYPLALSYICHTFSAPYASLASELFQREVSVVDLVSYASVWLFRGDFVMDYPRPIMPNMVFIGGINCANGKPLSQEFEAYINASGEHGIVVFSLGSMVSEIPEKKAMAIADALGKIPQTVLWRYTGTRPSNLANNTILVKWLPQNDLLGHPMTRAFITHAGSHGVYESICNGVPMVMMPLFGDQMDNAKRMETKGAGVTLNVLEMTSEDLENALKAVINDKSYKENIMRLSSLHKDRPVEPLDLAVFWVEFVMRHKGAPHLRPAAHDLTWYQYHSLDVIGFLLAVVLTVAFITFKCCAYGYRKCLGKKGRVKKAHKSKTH

activity at 120 min, 100 µM (UGT1A1): 37 ± 2.1%
activity at 30 min, 100 µM (UGT1A7): 25.6 ± 11.2%
activity at 30 min, 100 µM (UGT1A9): 15.2 ± 1.2%
activity at 30 min, 100 µM (UGT1A6): 28.2 ± 10%
Molecule: O=C(O)Cc1ccccc1Nc1c(Cl)cccc1Cl [diclofenac]

activity at 30 min, 100 µM (UGT1A8): 40.2 ± 5.3%
activity at 120 min, 100 µM (UGT1A10): 37.8 ± 8%
Molecule: CCCCC1C(=O)N(c2ccccc2)N(c2ccccc2)C1=O [phenylbutazone]

Molecule: hecogenin
Remaining activities (%) of UGT1A4 (UGT1A4): 20.3 ± 6.6%
